The record followed here is patent US20130303509A1, “NAMPT INHIBITORS” (AbbVie Inc., priority 2012, published 2013).

The test system of the assay is PC3 cells. Put plainly: NAMPT Cell Proliferation Assay. It is filed as cell-based. As to conditions: Homo sapiens, PC-3, 120 h, 5 days incubation, cell viability by Cell Titer Glo. The essentials:
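Five-day CellTiter-Glo viability readout in PC3 cells grown in RPMI/10% heat-inactivated FBS. Compounds added after overnight attachment as a 10-fold dilution series, […]. Percent inhibition fitted to sigmoidal dose-response to derive IC50.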
(In general: ATP-based viability assays read luminescence as a measure of living cells.)

As to `O=C(Nc1ccc(C2CCN(C(=O)c3cccc(F)c3)CC2)cc1)C1CN(c2ccnnc2)C1` [Example 554, N-{4-[1-(3-fluorobenzoyl)piperidin-4-yl]phenyl}-1-(pyridazin-4-yl)azetidine-3-carboxamide], the IC50 is 2.63 nM.

On to `O=C(Nc1ccc(C2CCN(C(=O)c3ccc(OC(F)(F)F)cc3)CC2)cc1)C1CN(c2ccnnc2)C1` [Example 555, 1-(pyridazin-4-yl)-N-(4-{1-[4-(trifluoromethoxy)benzoyl]piperidin-4-yl}phenyl)azetidine-3-carboxamide], for which the concentration for half-maximal inhibition (IC50) was 23.9 nM.

`CC(C)CC(=O)N1CCC(c2ccc(NC(=O)C3CN(c4ccnnc4)C3)cc2)CC1` [Example 556, N-{4-[1-(3-methylbutanoyl)piperidin-4-yl]phenyl}-1-(pyridazin-4-yl)azetidine-3-carboxamide] came in with a concentration for half-maximal inhibition (IC50) of 5.98 nM. `O=C(Nc1ccc(C2CCN(C(=O)CC(F)(F)F)CC2)cc1)C1CN(c2ccnnc2)C1` [Example 557, 1-(pyridazin-4-yl)-N-{4-[1-(3,3,3-trifluoropropanoyl)piperidin-4-yl]phenyl}azetidine-3-carboxamide] registered a 50% inhibitory concentration (IC50) of 10.2 nM. Against the preceding compound, the IC50 is about 1.7-fold higher.

In turn, `O=C(Nc1ccc(C2CCN(C(=O)C(F)(F)c3ccccc3)CC2)cc1)C1CN(c2ccnnc2)C1` [Example 558, N-(4-{1-[difluoro(phenyl)acetyl]piperidin-4-yl}phenyl)-1-(pyridazin-4-yl)azetidine-3-carboxamide] had an IC50 of 0.66 nM. The compound `CC(C)(C)C(=O)N1CCC(c2ccc(NC(=O)C3CN(c4ccnnc4)C3)cc2)CC1` [Example 559, N-{4-[1-(2,2-dimethylpropanoyl)piperidin-4-yl]phenyl}-1-(pyridazin-4-yl)azetidine-3-carboxamide] had an IC50 of 1.33 nM. For the compound `O=C(Nc1ccc(C2CCN(C(=O)C3CCC(F)(F)CC3)CC2)cc1)C1CN(c2ccnnc2)C1` [Example 560, N-(4-{1-[(4,4-difluorocyclohexyl)carbonyl]piperidin-4-yl}phenyl)-1-(pyridazin-4-yl)azetidine-3-carboxamide], the IC50 turned out to be 5.85 nM. For `O=C(Nc1ccc(C2CCN(C(=O)Cc3ccc(OC(F)(F)F)cc3)CC2)cc1)C1CN(c2ccnnc2)C1` [Example 561, 1-(pyridazin-4-yl)-N-[4-(1-{[4-(trifluoromethoxy)phenyl]acetyl}piperidin-4-yl)phenyl]azetidine-3-carboxamide], 62.2 nM corresponded to half-maximal inhibition (IC50). This IC50 is about 11-fold higher than that of the compound before. The same measure for `O=C(Nc1ccc(C2CCN(C(=O)c3cccc(OC(F)(F)F)c3)CC2)cc1)C1CN(c2ccnnc2)C1` [Example 562, 1-(pyridazin-4-yl)-N-(4-{1-[3-(trifluoromethoxy)benzoyl]piperidin-4-yl}phenyl)azetidine-3-carboxamide]: 9.45 nM; for `O=C(Nc1ccc(C2CCN(C(=O)Cc3ccc(C(F)(F)F)cc3)CC2)cc1)C1CN(c2ccnnc2)C1` [Example 563, 1-(pyridazin-4-yl)-N-[4-(1-{[4-(trifluoromethyl)phenyl]acetyl}piperidin-4-yl)phenyl]azetidine-3-carboxamide]: 24.2 nM. The compound `O=C(Nc1ccc(S(=O)(=O)C2CCN(C(=O)c3cccc(Cl)c3)CC2)cc1)C1CN(c2cccnn2)C1` [Example 564, N-(4-{[1-(3-chlorobenzoyl)piperidin-4-yl]sulfonyl}phenyl)-1-(pyridazin-3-yl)azetidine-3-carboxamide] came in with an IC50 of 79.2 nM. Compared with the last compound, the IC50 is about 3.3-fold higher. For the compound `CC(C)(C)c1ccc(C(=O)N2CCC(S(=O)(=O)c3ccc(NC(=O)C4CN(c5cccnn5)C4)cc3)CC2)cc1` [Example 565, N-(4-{[1-(4-tert-butylbenzoyl)piperidin-4-yl]sulfonyl}phenyl)-1-(pyridazin-3-yl)azetidine-3-carboxamide], inhibition was half-maximal at 74.1 nM (IC50).

In the case of `COc1ccc(C(=O)N2CCC(S(=O)(=O)c3ccc(NC(=O)C4CN(c5cccnn5)C4)cc3)CC2)cc1` [Example 566, N-(4-{[1-(4-methoxybenzoyl)piperidin-4-yl]sulfonyl}phenyl)-1-(pyridazin-3-yl)azetidine-3-carboxamide], the 50% inhibitory concentration (IC50) turned out to be 82.2 nM. This IC50 and that of the compound before are within 1.5-fold of each other. The same measure for `Cc1ccc(C(=O)N2CCC(S(=O)(=O)c3ccc(NC(=O)C4CN(c5cccnn5)C4)cc3)CC2)cc1` [Example 567, N-(4-{[1-(4-methylbenzoyl)piperidin-4-yl]sulfonyl}phenyl)-1-(pyridazin-3-yl)azetidine-3-carboxamide]: 76.5 nM. Compound `O=C(Nc1ccc(S(=O)(=O)C2CCN(C(=O)C3CCCCC3)CC2)cc1)C1CN(c2cccnn2)C1` [Example 568, N-(4-{[1-(cyclohexylcarbonyl)piperidin-4-yl]sulfonyl}phenyl)-1-(pyridazin-3-yl)azetidine-3-carboxamide] displayed a half-inhibitory concentration (IC50) of 48.2 nM. The compound `O=C(Nc1ccc(S(=O)(=O)C2CCN(C(=O)CC3CC3)CC2)cc1)C1CN(c2cccnn2)C1` [Example 569, N-(4-{[1-(cyclopropylacetyl)piperidin-4-yl]sulfonyl}phenyl)-1-(pyridazin-3-yl)azetidine-3-carboxamide] came in with an IC50 of 207 nM. Compared with the last compound, the IC50 is about 4.3-fold higher.

For `COc1ccccc1C(=O)N1CCC(S(=O)(=O)c2ccc(NC(=O)C3CN(c4cccnn4)C3)cc2)CC1` [Example 570, N-(4-{[1-(2-methoxybenzoyl)piperidin-4-yl]sulfonyl}phenyl)-1-(pyridazin-3-yl)azetidine-3-carboxamide], half-maximal inhibition (IC50) was put at 631 nM. With `CC[C@H](C(=O)N1CCC(S(=O)(=O)c2ccc(NC(=O)C3CN(c4cccnn4)C3)cc2)CC1)c1ccccc1` [Example 571, N-[4-({1-[(2S)-2-phenylbutanoyl]piperidin-4-yl}sulfonyl)phenyl]-1-(pyridazin-3-yl)azetidine-3-carboxamide], the IC50 was 118 nM. This IC50 lies about 5.3-fold lower than the previous one. On to `CC(C)c1ccc(C(=O)N2CCC(S(=O)(=O)c3ccc(NC(=O)C4CN(c5cccnn5)C4)cc3)CC2)cc1` [Example 572, N-[4-({1-[4-(propan-2-yl)benzoyl]piperidin-4-yl}sulfonyl)phenyl]-1-(pyridazin-3-yl)azetidine-3-carboxamide], for which inhibition was half-maximal at 59.8 nM (IC50). Compound `O=C(Nc1ccc(S(=O)(=O)C2CCN(C(=O)c3ccc(Cl)cc3)CC2)cc1)C1CN(c2cccnn2)C1` [Example 573, N-(4-{[1-(4-chlorobenzoyl)piperidin-4-yl]sulfonyl}phenyl)-1-(pyridazin-3-yl)azetidine-3-carboxamide] gave an IC50 of 81.9 nM. The same measure for `O=C(Nc1ccc(S(=O)(=O)C2CCN(C(=O)c3ccccc3)CC2)cc1)C1CN(c2cccnn2)C1` [Example 574, N-{4-[(1-benzoylpiperidin-4-yl)sulfonyl]phenyl}-1-(pyridazin-3-yl)azetidine-3-carboxamide]: 55.3 nM; for `O=C(Nc1ccc(S(=O)(=O)C2CCN(C(=O)CCC(F)(F)F)CC2)cc1)C1CN(c2cccnn2)C1` [Example 575, 1-(pyridazin-3-yl)-N-(4-{[1-(4,4,4-trifluorobutanoyl)piperidin-4-yl]sulfonyl}phenyl)azetidine-3-carboxamide]: 269 nM. The same measure for `O=C(Nc1ccc(S(=O)(=O)C2CCN(C(=O)c3cc(F)ccc3F)CC2)cc1)C1CN(c2cccnn2)C1` [Example 576, N-(4-{[1-(2,5-difluorobenzoyl)piperidin-4-yl]sulfonyl}phenyl)-1-(pyridazin-3-yl)azetidine-3-carboxamide]: 84.8 nM; for `O=C(Nc1ccc(S(=O)(=O)C2CCN(C(=O)c3ccccc3F)CC2)cc1)C1CN(c2cccnn2)C1` [Example 577, N-(4-{[1-(2-fluorobenzoyl)piperidin-4-yl]sulfonyl}phenyl)-1-(pyridazin-3-yl)azetidine-3-carboxamide]: 93 nM; for `Cc1ccccc1C(=O)N1CCC(S(=O)(=O)c2ccc(NC(=O)C3CN(c4cccnn4)C3)cc2)CC1` [Example 578, N-(4-{[1-(2-methylbenzoyl)piperidin-4-yl]sulfonyl}phenyl)-1-(pyridazin-3-yl)azetidine-3-carboxamide]: 88.7 nM.

Turning to `O=C(Nc1ccc(S(=O)(=O)C2CCN(C(=O)Cc3ccc(F)cc3)CC2)cc1)C1CN(c2cccnn2)C1` [Example 579, N-[4-({1-[(4-fluorophenyl)acetyl]piperidin-4-yl}sulfonyl)phenyl]-1-(pyridazin-3-yl)azetidine-3-carboxamide], the concentration for half-maximal inhibition (IC50) worked out at 267 nM. This IC50 lies about 3-fold higher than the previous one.

In turn, `Cc1cccc(C(=O)N2CCC(S(=O)(=O)c3ccc(NC(=O)C4CN(c5cccnn5)C4)cc3)CC2)c1` [Example 580, N-(4-{[1-(3-methylbenzoyl)piperidin-4-yl]sulfonyl}phenyl)-1-(pyridazin-3-yl)azetidine-3-carboxamide] registered an IC50 of 78 nM. Turning to `Cc1cccc(C(=O)N2CCC(S(=O)(=O)c3ccc(NC(=O)C4CN(c5cccnn5)C4)cc3)CC2)c1C` [Example 581, N-(4-{[1-(2,3-dimethylbenzoyl)piperidin-4-yl]sulfonyl}phenyl)-1-(pyridazin-3-yl)azetidine-3-carboxamide], the IC50 was found to be 80.7 nM. This IC50 and that of the compound before are within 1.5-fold of each other. As to `O=C(Nc1ccc(S(=O)(=O)C2CCN(C(=O)Cc3cccc(F)c3)CC2)cc1)C1CN(c2cccnn2)C1` [Example 582, N-[4-({1-[(3-fluorophenyl)acetyl]piperidin-4-yl}sulfonyl)phenyl]-1-(pyridazin-3-yl)azetidine-3-carboxamide], half-maximal inhibition (IC50) required 627 nM. As for `O=C(Nc1ccc(S(=O)(=O)C2CCN(C(=O)c3cccc(F)c3)CC2)cc1)C1CN(c2cccnn2)C1` [Example 583, N-(4-{[1-(3-fluorobenzoyl)piperidin-4-yl]sulfonyl}phenyl)-1-(pyridazin-3-yl)azetidine-3-carboxamide], half-maximal inhibition (IC50) required 87.4 nM. Consider `O=C(Nc1ccc(S(=O)(=O)C2CCN(C(=O)c3cccc(C(F)(F)F)c3)CC2)cc1)C1CN(c2cccnn2)C1` [Example 584, 1-(pyridazin-3-yl)-N-[4-({1-[3-(trifluoromethyl)benzoyl]piperidin-4-yl}sulfonyl)phenyl]azetidine-3-carboxamide], for which 87.2 nM corresponded to half-maximal inhibition (IC50). This IC50 and that of the compound before are within 1.5-fold of each other. Regarding `O=C(Nc1ccc(S(=O)(=O)C2CCN(C(=O)Cc3cc(F)cc(F)c3)CC2)cc1)C1CN(c2cccnn2)C1` [Example 585, N-[4-({1-[(3,5-difluorophenyl)acetyl]piperidin-4-yl}sulfonyl)phenyl]-1-(pyridazin-3-yl)azetidine-3-carboxamide], inhibition was half-maximal at 283 nM (IC50).

The IC50 is the point on the concentration scale where inhibition reaches its midpoint. A lower IC50 goes with greater potency.
